“Also recorded” adds a separate entry of the source. Where a SMILES comes first, the peptide text is derived from it.
Experiments:
[1] = tested on: Mature female carp; experiment: Gonadotropin release from mature carp in vivo (LH by ELISA)
Description: Mature female carp, just before spawning, were injected with NKBa, NKBb and NKF analogues, denoted by SEQ ID NO.44, SEQ ID NO.45 and SEQ ID NO.46, respectively (20 μg/kg body weight). LH levels was measured by specific ELISA, according to Aizen et al. 2012 [33].

[2] = tested on: Tilapia pituitary cells; experiment: Gonadotropin release from tilapia pituitary dispersed cells; type: cell-based; conditions: 10 nM, 4 hr
Description: Tilapia pituitary cells were subjected to enzymatic dispersion. Pituitary cells were stimulated with 10 nM of the NKBa or NKF analogue, denoted by SEQ ID NO.44 and SEQ ID NO.46, respectively, for 4 hr, when the medium was collected. […] Stimulation of tilapia pituitary cells with GnRH at [10 nM] was used as a control.

[3] = tested on: zfTac3rb; experiment: Receptor transactivation assay, CRE-Luc reporter (PKA activation), COS-7 cells expressing zfTac3rb; type: cell-based, zebrafish; conditions: mean ± SEM
Description: (§1) In order to study the signaling pathways of the novel zebrafish NKBs, the entire coding regions of zftac3ra (denoted by SEQ ID NO:6) or zftac3rb (denoted by SEQ ID NO:7), or the cDNA clone for human NK3R (obtained from the Missouri S&T cDNA Resource Center, were inserted into pcDNA3.1 (Invitrogen). The luciferase assay was conducted according to Biran et al., 2008 [4] COS-7 cells were grown in DMEM supplemented with 10% FBS, 1% glutamine, 100 U/ml penicillin, and […] streptomycin (Biological Industries) under 5% CO2 until confluent. Cotransfection of either pc-zftac3ra, pc-zftac3rb or pc-Htac3r (at 3 μg/plate), a reporter plasmid (at 2 μg/plate), and pCMV-β-galactosidase (at 1 μg/plate) was carried out with FuGENE 6.0 reagent (Roche). The cells were serum starved for 36 h, stimulated with vehicle or various concentrations of either human (Sigma) or zebrafish NKBs for 6 h, and then harvested and analyzed. Lysates prepared from the harvested cells were assayed for both luciferase activity and β-galactosidase activity, which was used as an internal standard to normalize the luciferase activity directed by the test plasmid. Transfection experiments were performed in triplicate with three independently isolated sets. Protein structure prediction of zebrafish NKBa, NKBb or NKF were performed on I-Tasser servers.
(§2) The response, binding selectivity and signal transduction pathways of the novel tachykinin receptors to their agonists were evaluated by functional expression analysis, using COS-7 cells.
(§3) The NKB analogues (i.e. the NKBa-analog, NKBb-analog and NKF-analog, as denoted by SEQ ID NO. 44-46) were first analyzed in comparison to their native forms in a transactivation assay, using reporter genes for specific signal transduction pathways. To validate the specificity of the serum-responsive element (SRE)-Luc and cAMP-responsive element (CRE)-Luc reporter systems, specific activators for PLC/PKC and AC/PKA signaling pathways were used in control experiments.
(§4) Thus, the ability of the three novel piscine peptides (namely, NKBa, NKBb and NKF, denoted by SEQ ID NO.40, 41 and 42), as well as the ability of the three analogous agonistic peptides, namely, NKBa-analog, NKBb-analog and NKF-analog, to differentially activate the different tac3 receptors, using SRE as a reporter gene that follows PKC activation and CRE as a reporter gene for the PKA pathway, was tested. Human NK3R (human NKB receptor) and human NKB served as controls.

[4] = tested on: zfTac3ra; experiment: Receptor transactivation assay, SRE-Luc reporter (PKC activation), COS-7 cells expressing zfTac3ra; type: cell-based, zebrafish; conditions: mean ± SEM
Description: as §1, §2, §3, §4

[5] = tested on: zfTac3ra; experiment: Receptor transactivation assay, CRE-Luc reporter (PKA activation), COS-7 cells expressing zfTac3ra; type: cell-based, zebrafish; conditions: mean ± SEM
Description: as §1, §2, §3, §4

[6] = tested on: Juvenile Tilapia; experiment: Gonadotropin release in vivo from juvenile tilapia (plasma LH and FSH by ELISA); set-up: species or system Tilapia (Oreochromis niloticus)
Description: Tilapia females (two-months old) were injected with the NKBa analogue denoted by SEQ ID NO.44 or the NKF analogue denoted by SEQ ID NO.46 at 0.5 or 5 μg/kg body weight (BW). Blood was withdrawn from the caudal vein and plasma Luteinizing hormone (LH) and Follicle-stimulating hormone (FSH) levels were measured using a homologous sensitive enzyme-linked immunosorbent assay (ELISA), as described by Aizen et al. 2007 [33].

[7] = tested on: zfTac3rb; experiment: Receptor transactivation assay, SRE-Luc reporter (PKC activation), COS-7 cells expressing zfTac3rb; type: cell-based, zebrafish; conditions: mean ± SEM
Description: as §1, §2, §3, §4

[8] = tested on: sexually mature female zebrafish; experiment: In vivo effect of NKBs in zebrafish: LH secretion after intraperitoneal injection; conditions: single intraperitoneal injection; for LH secretion: 20 pmol/g body weight, sexually mature female zebrafish; for magnitude of the induced LH discharge: compared with GnRH
Description: In vivo studies involved administering NKBa, NKBb or NKF and the analogues thereof, denoted by SEQ ID NO. 40-42 and 44-46, respectively to immature fish (20 fish/treatment). The circulating levels of E2, 11KT, LH and FSH were determined prior to hormonal manipulations, in order to confirm that these fish were indeed sexually immature. The fish were injected intramuscularly (i.m.) or intraperitonealy (i.p.) at various doses. Adult female zebra fish were injected intraperitoneally with 20 pmol/g body weight. Control fish were injected with saline. Plasma samples were collected at time 0, and specific times after the administration of the peptide/s, to determine the levels of E2, 11KT, LH and FSH.
To further characterize the role of the NKB/NKBR system in fish reproduction the in vivo biological function of zebrafish NKB peptides was next examined.

[9] = target: T1, huNK3R (Homo sapiens, UniProt P29371); experiment: Receptor transactivation assay, SRE-Luc reporter (PKC activation), COS-7 cells expressing human NK3R; type: cell-based; conditions: for SRE-driven luciferase activity, response: COS-7 cells transiently transfected with human NK3R; for EC50: Table 5, COS-7 cells, SRE-Luc follows PKC activation, mean ± SEM
T1 construct: host or cells: COS-7
T1 sequence (P29371 1-465): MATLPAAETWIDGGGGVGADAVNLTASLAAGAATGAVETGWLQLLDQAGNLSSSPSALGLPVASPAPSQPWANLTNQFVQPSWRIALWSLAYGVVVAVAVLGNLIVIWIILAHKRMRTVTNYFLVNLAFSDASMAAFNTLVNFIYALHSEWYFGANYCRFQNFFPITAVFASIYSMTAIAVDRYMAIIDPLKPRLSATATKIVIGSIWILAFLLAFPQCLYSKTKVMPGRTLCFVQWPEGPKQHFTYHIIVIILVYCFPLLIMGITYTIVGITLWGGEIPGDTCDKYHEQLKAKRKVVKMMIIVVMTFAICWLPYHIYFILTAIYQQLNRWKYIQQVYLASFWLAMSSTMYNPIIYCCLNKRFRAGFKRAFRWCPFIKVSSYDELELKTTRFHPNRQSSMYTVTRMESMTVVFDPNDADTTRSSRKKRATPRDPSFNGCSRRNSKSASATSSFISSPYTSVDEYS
Description: In order to study the signaling pathways of the novel zebrafish NKBs, the entire coding regions of zftac3ra (denoted by SEQ ID NO:6) or zftac3rb (denoted by SEQ ID NO:7), or the cDNA clone for human NK3R (obtained from the Missouri S&T cDNA Resource Center, were inserted into pcDNA3.1 (Invitrogen). The luciferase assay was conducted according to Biran et al., 2008 [4] COS-7 cells were grown in DMEM supplemented with 10% FBS, 1% glutamine, 100 U/ml penicillin, and 100 mg/ml streptomycin (Biological Industries) under 5% CO2 until confluent. Cotransfection of either pc-zftac3ra, pc-zftac3rb or pc-Htac3r (at 3 μg/plate), a reporter plasmid (at 2 μg/plate), and pCMV-β-galactosidase (at 1 μg/plate) was carried out with FuGENE 6.0 reagent (Roche). The cells were serum starved for 36 h, stimulated with vehicle or various concentrations of either human (Sigma) or zebrafish NKBs for 6 h, and then harvested and analyzed. Lysates prepared from the harvested cells were assayed for both luciferase activity and β-galactosidase activity, which was used as an internal standard to normalize the luciferase activity directed by the test plasmid. Transfection experiments were performed in triplicate with three independently isolated sets.

[10] = tested on: NKB receptors (human NKBR, zebrafish Tac3ra, Tac3rb); experiment: Receptor transactivation assay, statements in words across SRE-Luc and CRE-Luc reporters and receptors; type: cell-based; conditions: for potency: both zebrafish tac3 receptors, in both signal transduction systems
Description: as §1, §2, §4

[11] = target: T2, NKB receptors (human NKBR, zebrafish Tac3ra, Tac3rb) (Homo sapiens, UniProt P29371); experiment: as above; type: cell-based; conditions: human NKBR (huNK3R), in both signal transduction systems (SRE-Luc and CRE-Luc)
T2 construct: expressed in transfected cells; host or cells: COS-7
T2 sequence (P29371 1-465): T1 sequence (P29371 1-465)
Description: as §1, §2, §4

[12] = target: T1, huNK3R; experiment: Receptor transactivation assay, CRE-Luc reporter (PKA activation), COS-7 cells expressing human NK3R; type: cell-based; conditions: Table 5, CRE-Luc follows PKA activation, mean ± SEM
Description: In order to study the signaling pathways of the novel zebrafish NKBs, the entire coding regions of zftac3ra (denoted by SEQ ID NO:6) or zftac3rb (denoted by SEQ ID NO:7), or the cDNA clone for human NK3R (obtained from the Missouri S&T cDNA Resource Center, were inserted into pcDNA3.1 (Invitrogen). The luciferase assay was conducted according to Biran et al., 2008 [4] COS-7 cells were grown in DMEM supplemented with 10% FBS, 1% glutamine, 100 U/ml penicillin, and 100 mg/ml streptomycin (Biological Industries) under 5% CO2 until confluent. Cotransfection of either pc-zftac3ra, pc-zftac3rb or pc-Htac3r (at 3 μg/plate), a reporter plasmid (at 2 μg/plate), and pCMV-β-galactosidase (at 1 μg/plate) was carried out with FuGENE 6.0 reagent (Roche). The cells were serum starved for 36 h, stimulated with vehicle or various concentrations of either human (Sigma) or zebrafish NKBs for 6 h, and then harvested and analyzed. Lysates prepared from the harvested cells were assayed for both luciferase activity and β-galactosidase activity, which was used as an internal standard to normalize the luciferase activity directed by the test plasmid. […]
The response, binding selectivity and signal transduction pathways of the novel tachykinin receptors to their agonists were evaluated by functional expression analysis, using COS-7 cells. […]

[13] = Table 6 (native peptides and analogues), PKA activation, read-out: EC50 using CRE-Luc, zfTac3rb
[14] = Table 7 (native peptides and analogues), PKC activation, read-out: EC50 using SRE, zfTac3ra
[15] = Table 6 (native peptides and analogues), PKA activation, read-out: EC50 using CRE-Luc, zfTac3ra
[16] = Juvenile Tilapia, injected at 0.5 or 5 μg/Kg BW
[17] = tilapia females two-months old, injected 5 μg/kg BW, listed as NKF analogue
[18] = Table 7 (native peptides and analogues), PKC activation, read-out: EC50 using SRE, zfTac3rb
[19] = Table 5, COS-7 cells, CRE-Luc follows PKA activation, read-out: EC50 CRE-Luc zfTac3rb
[20] = Table 5, COS-7 cells, SRE-Luc follows PKC activation, read-out: EC50 SRE-Luc zfTac3ra
[21] = Table 5, COS-7 cells, CRE-Luc follows PKA activation, read-out: EC50 CRE-Luc zfTac3ra
[22] = Table 5, COS-7 cells, SRE-Luc follows PKC activation, read-out: EC50 SRE-Luc zfTac3rb

| EC50 [3, 13] [nM] | EC50 [4, 14] [nM] | EC50 [5, 15] [nM] | EC50 [7, 18] [nM] | SRE-driven luciferase activity, response [9] | EC50 [9] [nM] | potency [11] | EC50 [3, 19] [nM] | EC50 [4, 20] [nM] | EC50 [5, 21] [nM] | EC50 [7, 22] [nM] | Compound | LH secretion [8] | magnitude of the induced LH discharge [8] | potency [10] | other results |
| --- | --- | --- | --- | --- | --- | --- | --- | --- | --- | --- | --- | --- | --- | --- | --- |
| 7.75 | 0.31 | 9.14 ± 1.27 | 0.54 ± 0.39 | – | – | – | – | – | – | – | CSCC[C@H](NC(=O)[C@H](CC(C)C)NC(=O)CNC(=O)[C@H](C(C)C)N(C)C(=O)[C@H](Cc1ccccc1)NC(=O)[C@H](CO)NC(=O)[C@H](CC(=O)O)NC(=O)CCC(=O)O)C(N)=O [zfNKF-analog, Succ-Asp-Ser-Phe-N(Me)Val-Gly-Leu-Met-NH2] | – | – | – | LH level ([1]; mature female carp just before spawning, injected 20 μg/kg body weight, listed as NKF analogue): significant elevation; also recorded: increased the level of LH significantly; persistence of the LH effect ([1]; mature female carp, 20 μg/kg body weight, throughout the experiment): remained constant throughout the experiment; release of FSH from tilapia pituitary cells [2]: significantly increased; FSH secretion [6, 16]: significant increase; LH secretion [6, 16]: significant increase; plasma FSH level [6, 17]: significant increase; also recorded: increased significantly; plasma LH level [6, 17]: significant increase |
| 1.8 | 0.55 | 4.94 ± 1.83 | 0.37 ± 0.16 | elicited an increased response | 0.52 ± 0.18 | high potency | 1.8 ± 1.55 | 0.54 ± 0.13 | 4.94 ± 1.83 | 0.36 ± 0.16 | CC[C@H](C)[C@H](NC(=O)[C@H](CC(=O)O)NC(=O)[C@H](CC(N)=O)NC(=O)[C@@H](N)Cc1ccc(O)cc1)C(=O)N[C@@H](CC(=O)O)C(=O)N[C@@H](Cc1ccc(O)cc1)C(=O)N[C@@H](CC(=O)O)C(=O)N[C@@H](CO)C(=O)N[C@@H](Cc1ccccc1)C(=O)N[C@H](C(=O)NCC(=O)N[C@@H](CC(C)C)C(=O)N[C@@H](CCSC)C(N)=O)C(C)C [zfNKF] (H-YNDIDYDSFVGLM-NH2) | significant increase; also recorded: significant LH secretion | comparable with that observed in response to GnRH | most potent among all tachykinins examined | EC50 [12]: 4.36 ± 1.25 nM |
| 16.4 ± 12 | 0.62 ± 0.22 | 4.75 ± 1.48 | 26.1 | elicited an increased response | 0.49 ± 0.18 | high potency | 4.55 ± 1.57 | 0.5 ± 0.17 | 5.75 ± 1.45 | 1.47 ± 1.66 | CC[C@H](C)[C@H](NC(=O)[C@H](CC(=O)O)NC(=O)[C@H](Cc1c[nH]cn1)NC(=O)[C@H](CCSC)NC(=O)[C@@H](N)CCC(=O)O)C(=O)N[C@@H](Cc1ccccc1)C(=O)N[C@H](C(=O)NCC(=O)N[C@@H](CC(C)C)C(=O)N[C@@H](CCSC)C(N)=O)C(C)C [zfNKBa] (H-EMHDIFVGLM-NH2) | significant increase; also recorded: significant LH secretion | comparable with that observed in response to GnRH | most potent among all tachykinins examined | effectiveness in the transactivation assay ([10]; native peptides versus analogues, Example 12): most effective peptide; EC50 ([3]; Table 6 (native peptides and analogues), PKA activation, listed as NKBa, read-out: EC50 using CRE-Luc, zfTac3rb): 16 nM |
